{"source": "patent US20030139332A1", "about": "“Use of matrix metalloproteinase inhibitors to mitigate nerve damage” (The Regents of the University of California, priority 2001, published 2003)", "key": {"[1]": {"test_system": "MMP-9 and other gelatinases", "assay": "Gelatin zymography of injured spinal cord extracts with metalloproteinase inhibitor control", "format": "biochemical, mouse", "conditions": "substrate gels incubated with 4 mM 1,10-phenanthroline", "description": "Samples of spinal cord, prepared from the epicenter, were quick-frozen at −80° C. Each sample was weighed and homogenized in (1:4 weight to volume) in lysis buffer containing 50 mM Tris-HCl (pH 8.0), 150 mM NaCl, 1% NP-40, 0.5% deoxycholate, 0.1% SDS. Soluble and insoluble extracts were separated by centrifugation and stored at −20° C. Equal amounts of the supernatant were analyzed by gel zymography as previously described (Herron et al., 1986) on 10% SDS-polyacrylamide gels, copolymerized with substrate (1 mg/ml gelatin). The proteins were renatured by incubation in 2.5% Triton-X100, and then incubated in substrate buffer (50 mM Tris-HCl, […]) for 24 to 36 hours at 37° C. to enable the MMP-9 and other gelatinases to cleave the gelatin. After rinsing in water, each gel was stained with Coomassie Blue for 4 hours and destained in 50% methanol. Negative staining is indicative of the location of active protease bands. After exposure to SDS during gel separation, proenzymes, present in tissue extracts, are activated without proteolytic cleavage. To inhibit MMP proteolytic activities, substrate gels were incubated in substrate buffer with 4 mM 1,10-phenanthroline (Sigma, St. Louis, Mo.), as described (Adler et al. 1990) Development 110:211-220). This control ensured that the measured activity corresponded to matrix metalloproteinase activity. […]"}, "neutrophils": {"test_system": "neutrophils", "assay": "Neutrophil infiltration into the lesion (chloroacetate esterase stain) after spinal cord injury", "format": "in vivo, mouse", "conditions": "24 hours post injury; GM6001 N=4 vs vehicle N=4; P=0.01", "description": "Adult, male mice (4-6 months of age), were anesthetized with 2.5% Avertin (0.02 ml/g bw, i.p.) and maintained at 37° C. throughout the experiment by using a warming blanket placed under the animal. A contusive injury was performed based upon modifications of procedures originally described by Kuhn and Wrathall (1998) J. Neurotrauma 15:125-140. Briefly, using aseptic techniques the spinous process and laminae of T8 were removed and a circular region of dura, approximately 2.4 mm in diameter, was exposed. After stabilization of the vertebral column, a 2 gm weight was dropped 5.0 cm onto the exposed dura. After injury, the overlying skin was closed with wound clips. Postoperative care included manual expression of each animal's bladder until recovery of reflex emptying. […]\nThe protocol was as described by the manufacturer with several exceptions. […] The number of neutrophils within each of these sections was determined from digital images, captured with a CCD camera, as described in the preceding paragraph at 40×magnification. […] Only darkly stained structures, greater than 38 μm^2 (7 μm in diameter) were counted. For the rostral and caudal sections, the numbers of neutrophils within the entire cross sections were determined and summed. For the epicenter, neutrophils were quantified within specific regions of the cross section. […]"}, "spinal cord injured mice": {"test_system": "spinal cord injured mice", "assay": "Locomotor recovery after spinal cord injury, open field BBB Locomotor Rating Scale", "format": "in vivo, mouse", "conditions": "over 6 weeks post injury, GM6001 N=9 vs vehicle N=4, treatment 3 hours to 3 days post injury", "description": "(§1) Adult, male mice (4-6 months of age), were anesthetized with 2.5% Avertin (0.02 ml/g bw, i.p.) and maintained at 37° C. throughout the experiment by using a warming blanket placed under the animal. […] Briefly, using aseptic techniques the spinous process and laminae of T8 were removed and a circular region of dura, approximately 2.4 mm in diameter, was exposed. After stabilization of the vertebral column, a 2 gm weight was dropped 5.0 cm onto the exposed dura. After injury, the overlying skin was closed with wound clips. Postoperative care included manual expression of each animal's bladder until recovery of reflex emptying.\n(§2) Wild type mice were subjected to spinal cord injury as described in the previous section. […] Animals were treated every 12 hours (100 mg/kg in 4% methylcellulose, i.p.), for the first 3 days post injury.\nThis scale assesses 10 distinct categories that range from limb movement to tail position and involve detailed observations of joint movement, stepping, and coordination. […] Spinal cord injured animals were tested on days 1 and 3 post injury and weekly thereafter for 6 weeks. […] Positioning of the limbs and locomotion was then observed by either directly or indirectly (via the mirror) viewing the animal."}, "[2]": {"test_system": "blood-spinal cord barrier", "assay": "Blood-spinal cord barrier permeability to horseradish peroxidase (HRP) after contusive spinal cord injury", "format": "in vivo, mouse", "conditions": "24 hours post injury, GM 6001 100 mg/kg i.p. from 3 hours post injury, compared to wild type; for blood-spinal cord barrier permeability to HRP at the lesion epicenter: wild type mice, every 12 hours", "description": "as §1, §2"}, "[3]": {"test_system": "blood-spinal cord barrier", "assay": "Blood-spinal cord barrier permeability to luciferase after spinal cord injury", "format": "in vivo, mouse", "conditions": "24 hours post injury, GM6001 begun at 3 hours after injury, N=6, vs vehicle N=4, P=0.04", "description": "as §1, §2"}, "spinal cord white matter": {"test_system": "spinal cord white matter", "assay": "Area of residual white matter at the lesion epicenter (Luxol fast blue)", "format": "in vivo, mouse", "conditions": "42 days post injury, GM6001 vs vehicle, P=0.01", "description": "Adult, male mice (4-6 months of age), were anesthetized with 2.5% Avertin (0.02 ml/g bw, i.p.) and maintained at 37° C. throughout the experiment by using a warming blanket placed under the animal. A contusive injury was performed based upon modifications of procedures originally described by Kuhn and Wrathall (1998) J. Neurotrauma 15:125-140. Briefly, using aseptic techniques the spinous process and laminae of T8 were removed and a circular region of dura, approximately 2.4 mm in diameter, was exposed. After stabilization of the vertebral column, a 2 gm weight was dropped 5.0 cm onto the exposed dura. After injury, the overlying skin was closed with wound clips. Postoperative care included manual expression of each animal's bladder until recovery of reflex emptying.\nWild type mice were subjected to spinal cord injury as described in the previous section. All mice were treated with either GM 6001 (AMS Scientific, Inc., Concord, Calif. 100 mg/kg in 4% methylcellulose, i.p.), a general inhibitor of MMPs, or vehicle (4% methylcellulose, i.p.), at 3 hours post injury. […]\nThe area of residual white matter at the epicenter was determined in vehicle-and drug-treated wild type mice at 42 days post injury. […] These sections were captured with a Spotcam camera mounted on a Nikon Optiphot and analyzed using Photoshop 6.0™. […] These pixels were quantified and expressed per unit area."}}, "note": "Entries after “also recorded” stand apart in the source; their conditions may differ."}
{"smiles": "c1cnc2c(c1)ccc1cccnc12", "note": "[1,10 phenanthroline, 1,10-phenanthroline]", "values": [{"measurement": "gelatinolytic activity (inactive and active forms of MMP-9 and MMP-2) in gelatin zymography", "setting": "[1]", "result": "completely blocked the gelatinolytic activity; also recorded: completely blocks the inactive and active forms"}]}
{"smiles": "CNC(=O)[C@H](Cc1c[nH]c2ccccc12)NC(=O)[C@@H](CC(=O)NO)CC(C)C", "note": "[GM6001]", "values": [{"measurement": "numbers of neutrophils within the lesion epicenter", "setting": "neutrophils", "result": "significant reduction in the numbers of neutrophils"}, {"measurement": "locomotor recovery (BBB Locomotor Rating Scale, 21 point scale)", "setting": "spinal cord injured mice", "result": "greater locomotor"}, {"measurement": "locomotor recovery (BBB Locomotor Rating Scale, 21 point scale)", "setting": "spinal cord injured mice; listed as GM 6001", "result": "significant locomotor recovery as early as 3 days post injury and weekly thereafter"}, {"measurement": "axial distribution of abnormal barrier permeability to HRP (segments rostral and caudal to the lesion)", "setting": "[2]", "result": "not observed"}, {"measurement": "blood-spinal cord barrier permeability to HRP at the lesion epicenter", "setting": "[2]; 100 mg/kg", "result": "marked increase in permeability to HRP in the wild type mice as compared to"}, {"measurement": "blood-spinal cord barrier permeability to HRP at the lesion epicenter", "setting": "[2]; listed as GM 6001, 100 mg/kg", "result": "only light patches of HRP reaction product in the epicenter"}, {"measurement": "abnormal barrier permeability to luciferase in the epicenter", "setting": "[3]", "result": "significant reduction in barrier permeability"}, {"measurement": "abnormal barrier permeability to luciferase in the epicenter", "setting": "[3]; listed as GM 6001", "result": "significantly attenuated"}, {"measurement": "area of residual white matter at the lesion epicenter", "setting": "spinal cord white matter", "result": "significantly greater preservation of white matter"}, {"measurement": "area of residual white matter at the lesion epicenter", "setting": "spinal cord white matter; listed as GM 6001", "result": "significant preservation of white matter"}]}
